Experimental data reported in patent publication US5001120A, “Use of A-Nor-steroids as malignant cells growth inhibitors” (Natural Pharmacia International, Inc., priority 1989, dated 1991).
In brackets after ≈: the same amount, converted by molar mass. Counter-ions that a name gives are not always drawn. Like-named read-outs stand apart in the source and are kept apart here.

Assays:
[1] = tested on: ileocecal carcinoma (HCT-8); test: In vitro ED50 against tumor cells, HCT-8; assay type: cell-based; settings: Homo sapiens
From the text: (§1) The procedure of Geran, R. T., et al. Cancer Chemother. Rep. (Part 3) 3,1 (1972) (see K. H. Lee et al., Planta Medica, 308, 1988), was employed to determine the in vitro ED50 dose for NPI-007 and NPI-008 against human tumor cells, including the lymphoid leukemia (L 1210), the lung carcinoma (A-549), the ileocecal carcinoma (HCT-8), and the mammary gland carcinoma (MCF-7) cell lines. These cell lines were obtained from the American Type Culture Collection (Rockville, Md.).

lung carcinoma (A-549) = test: In vitro ED50 against tumor cells, A-549; assay type: cell-based; settings: Homo sapiens
From the text: as §1

Sarcoma-180 = test: In vivo Tumor Growth Inhibition Assay, S180; set-up: species or system Swiss albino female mice; settings: 0.1 mg/0.05 ml into thigh muscle every other day, 5 treatments; for Inhibition %: wet tumor weight vs control; for Wet Weight of Tumor (treatment group): ± SE (n=5), control 2.0939 ± 0.3835
From the text: (§2) Swiss albino female mice of 10-12 weeks old, weighing 17-20 grams were separated into two groups.
(§3) Sarcoma-180, Ehrlich ascite tumor (ECA) and U14 cell lines were separately maintained and propagated in MEM-F12 medium supplemented with 10% FCS. The cells were detached to suspension by use of 0.25% trypsin solution. After suspension, the cells were washed once with PBS and resuspended in sample buffered solution. The cells were counted by a coulter particle counting apparatus. Cells sized from 10-100 μ were obtained for calculation of dosage.
(§4) Animals were restrained manually and 0.2 ml cell suspension containing 10^7 to 2×10^7 cells/ml for S180, U14 or ECA were injected subcutaneously in left thorax ventrally adjacent to axillae. The selected A-nor-5α-androstane (5 mg) was dissolved in 2.5 ml phosphate buffered saline (pH 7.4) solution. A solution (0.1 mg/0.05 ml) was injected into thigh muscle every other day for 5 consecutive treatments. The injection site was alternated between right and left legs. […] Control animals received injection of the same amount of PBS in a manner similar to the treated groups.
(§5) At 2 days after the last (5th) treatment, animals were sacrificed by suffocation with carbon dioxide gas. The skin over the tumor site was reflected and the tumor mass dissected free from connective tissue and weighted with an electric balance.

[2] = experimental animals (Ku, C.P. et al., 1975); cited from earlier work
[3] = tested on: mammary gland carcinoma (MCF-7); test: In vitro ED50 against tumor cells, MCF-7; assay type: cell-based; settings: Homo sapiens
From the text: as §1

[4] = tested on: Ehrlich ascite tumor (ECA); test: In vivo Tumor Growth Inhibition Assay, ECA; set-up: species or system Swiss albino female mice; settings: 0.1 mg/0.05 ml into thigh muscle every other day, 5 treatments; for Inhibition %: wet tumor weight vs control; for Wet Weight of Tumor (treatment group): ± SE (n=5), control 0.4162 ± 0.0767
From the text: as §2, §3, §4, §5

M14 = test: In vivo Tumor Growth Inhibition Assay, M14; set-up: species or system Swiss albino female mice; settings: 0.1 mg/0.05 ml into thigh muscle every other day, 5 treatments; for Inhibition %: wet tumor weight vs control; for Wet Weight of Tumor (treatment group): ± SE (n=5), control 1.1413 ± 0.1225
[5] = tested on: lymphoid leukemia (L 1210); test: In vitro ED50 against tumor cells, L 1210; assay type: cell-based
From the text: as §1

[6] = experimental and clinical evidence; cited from earlier work
[7] = cited from earlier work
Lewis Lung Carcinoma = test: In vivo Antitumor Activity Against Lewis Lung Carcinoma; set-up: species or system Mice (DBF1); settings: dosage mg × 7 Days: NPI-008 0.1, Cyclophosphamide 0.4; for Tumor Weight, 3 Days After Treatment: 10 mice, control 310 ± 51.5; for Tumor Weight, 8 Days After Treatment: 11 mice, control 772 ± 360
[8] = tested on: amitotic cells of cultured hamster's ascites tumor; settings: Pincus and Gordon (1965); cited from earlier work

CC[C@]1(O)C[C@@H]2CN(CCc3c([nH]c4ccccc34)[C@@](C(=O)OC)(c3cc4c(cc3OC)N(C)[C@H]3[C@@](O)(C(=O)OC)[C@H](OC(C)=O)[C@]5(CC)C=CCN6CC[C@]43[C@@H]65)C2)C1 [Vinblastine sulfate, reference compound]
IC50 ([1]; HCT-8, read-out: ED50): 0.005 µg/mL
IC50 (lung carcinoma (A-549); A549, read-out: ED50): 0.003 µg/mL

C#C[C@@]1(OC(=O)CC)C[C@@H]2CC[C@@H]3[C@H](CC[C@@]4(C)[C@H]3CC[C@]4(C#C)OC(=O)CC)[C@@]2(C)C1 [NPI-007, 2α,17α-diethynyl-A-nor-5α-androstane-2β,17β-diol dipropionate]
Inhibition % (Sarcoma-180): 74.1%
Wet Weight of Tumor (treatment group) (Sarcoma-180): 0.5428 ± 0.1059 g
anti-implantation activity [2]: significant anti-implantation activity
IC50 ([3]; MCF7, read-out: ED50): 5.9 µg/mL (≈ 13.5 µM)
Inhibition % [4]: 52.9%
Wet Weight of Tumor (treatment group) [4]: 0.1957 ± 0.0165 g
IC50 ([1]; HCT-8, read-out: ED50): 0.57 µg/mL (≈ 1.3 µM)
IC50 (lung carcinoma (A-549); A549, read-out: ED50): > 10 µg/mL
Inhibition % (M14): 43.4%
Wet Weight of Tumor (treatment group) (M14): 0.6464 ± 0.0536 g
IC50 ([5]; L1210, read-out: ED50): 4.5 µg/mL (≈ 10.3 µM)
anti-fertility activity [6]: significant anti-fertility activity
hyperestrogenic side effect ([7]; clinical studies (Ku, C.P. et al., 1975)): hyperestrogenic side effect has been noted
anti-implantation activity ([7]; clinical trials (Hu, C. et al., 1982)): significant anti-implantation activity

C#C[C@@]1(OC(=O)CCC(=O)O)C[C@@H]2CC[C@@H]3[C@H](CC[C@@]4(C)[C@H]3CC[C@]4(C#C)OC(=O)CCC(=O)O)[C@@]2(C)C1 [NPI-008, 2α,17α-diethynyl-A-nor-5α-androstane-2β,17β-diol disuccinate]
Inhibition % (Sarcoma-180): 87.0%
Wet Weight of Tumor (treatment group) (Sarcoma-180): 0.2722 ± 0.0872 g
IC50 ([3]; MCF7, MCF-7, N = 4, read-out: ED50 (the source's name)): 7.6 µg/mL
Inhibition % [4]: 90.0%
Wet Weight of Tumor (treatment group) [4]: 0.0416 ± 0.0120 g
IC50 ([1]; HCT-8, N = 4, read-out: ED50 (the source's name)): 0.41 µg/mL
IC50 (lung carcinoma (A-549); A549, A-549, N = 4, read-out: ED50 (the source's name)): > 10 µg/mL
Inhibition % (M14): 75.6%
Wet Weight of Tumor (treatment group) (M14): 0.2785 ± 0.0308 g
Tumor Weight, 3 Days After Treatment (Lewis Lung Carcinoma): 168 ± 53 mg
Tumor Weight, 8 Days After Treatment (Lewis Lung Carcinoma): 175 ± 153 mg
IC50 ([5]; L1210, L 1210, N = 4, read-out: ED50 (the source's name)): 5.87 µg/mL

O=P1(N(CCCl)CCCl)NCCCO1 (stereo not shown) [Cyclophosphamide, reference compound]
Tumor Weight, 3 Days After Treatment (Lewis Lung Carcinoma): 130 ± 31 mg
Tumor Weight, 8 Days After Treatment (Lewis Lung Carcinoma): 500 ± 275 mg

C#C[C@@]1(O)C[C@@H]2CC[C@@H]3[C@H](CC[C@@]4(C)[C@H]3CC[C@]4(C)O)[C@@]2(C)C1 [2α-ethynyl-2β, 17β-diol-17α-methyl]
antiestrogenic activity (inhibition of estrogen-induced cell division) [8]: possess antiestrogenic activity

C#C[C@]1(O)CC[C@H]2[C@@H]3CC[C@H]4C[C@H](C(C)=O)C[C@]4(C)[C@H]3CC[C@@]21C [2α-acetyl-17α-ethynyl-17β-ol]
antiestrogenic activity (inhibition of estrogen-induced cell division) [8]: possess antiestrogenic activity

COc1cc([C@@H]2c3cc4c(cc3[C@@H](O[C@@H]3O[C@@H]5CO[C@@H](C)O[C@H]5[C@H](O)[C@H]3O)[C@H]3COC(=O)[C@H]23)OCO4)cc(OC)c1O [etoposide, reference compound]
IC50 ([5]; L1210, read-out: ED50): 1.58 µg/mL (≈ 2.68 µM)

C#C[C@@]1(O)C[C@@H]2CC[C@@H]3[C@H](CC[C@]4(C)[C@@H](O)CC[C@@H]34)[C@@]2(C)C1 [2α-ethynyl-2β,17β-diol]
antiestrogenic activity (inhibition of estrogen-induced cell division) [8]: possess antiestrogenic activity

COc1cccc2c1C(=O)c1c(O)c3c(c(O)c1C2=O)C[C@@](O)(C(=O)CO)C[C@@H]3O[C@H]1C[C@H](N)[C@H](O)[C@H](C)O1 [Adriamycin HCl, reference compound]
IC50 ([1]; HCT-8, read-out: ED50): 0.3 µg/mL
IC50 (lung carcinoma (A-549); A549, read-out: ED50): 0.16 µg/mL

2α,17α-diethyl,2β-17β-diol
antiestrogenic activity (inhibition of estrogen-induced cell division) [8]: possess antiestrogenic activity
